In paper PMC8752738, “A propolis-derived small molecule ameliorates metabolic syndrome in obese mice by targeting the CREB/CRTC2 transcriptional complex” (Nature Communications, 2022):
Where “and” joins values, the source holds several entries; their conditions need not be identical. Equal entries are not always repeated.

Experiment: Glucose, insulin, and pyruvate tolerance tests
Format: in vivo, mouse
Design: AUC of IGTT, Total Area / AUC analysis of ITT, Total Area / AUC of ITT, group mean / AUC of PTT, group mean / IGTT, Mean Diff. APC - VEH / IGTT, group mean (Mean 1, APC): unit not given beside the values
Details: for blood glucose, PTT in DIO, group mean / blood glucose, IGTT, mean / ITT, group mean: N=7; for blood glucose: OGTT in db/db; for IGTT, group mean (Mean 1, APC): n=8
Procedure: After overnight fasting, mice were i.p. injected or treated orally with D-glucose (1–2 g/kg) for glucose-tolerance tests (IGTT or OGTT) or injecting with sodium pyruvate (1–2 g/kg) for pyruvate tolerance tests (PTT). Insulin-tolerance tests (ITT) were performed by i.p. injection of insulin (1 U/kg) 2-h after food removal. […]

[1] = DIO and db/db mice, i.p. 20 mg/kg, 5 weeks

## CC(C)=CCc1cc(C=CC(=O)O)cc(CC=C(C)C)c1O [APC, 3,5-diprenyl-4-hydroxycinnamic acid]
[1]
  capability for gluconeogenesis (PTT): significantly inhibited
  whole-body insulin sensitivity (GTT and ITT): greatly enhanced
DIO mice, 0 mins of PTT, mean of APC group
  blood glucose, PTT in DIO, group mean: 98.23 mg/dL
DIO mice, 0 mins of PTT, single animals, n=7
  blood glucose, PTT in DIO: 79.2 mg/dL and 84.6 mg/dL and 104.4 mg/dL and 95.4 mg/dL and 124.2 mg/dL and 122.4 mg/dL and 77.4 mg/dL
DIO mice, 15 mins of PTT, mean of APC group
  blood glucose, PTT in DIO, group mean: 148.9 mg/dL
DIO mice, 15 mins of PTT, single animals, n=7
  blood glucose, PTT in DIO: 135 mg/dl and 153 mg/dl and 190.8 mg/dl and 156.6 mg/dl (2×) and 127.8 mg/dl and 122.4 mg/dl
DIO mice, 30 mins of PTT, mean of APC group
  blood glucose, PTT in DIO, group mean: 191.6 mg/dL
DIO mice, 30 mins of PTT, single animals, n=7
  blood glucose, PTT in DIO: 160.2 mg/dL and 192.6 mg/dL and 210.6 mg/dL and 185.4 mg/dL and 230.4 mg/dL and 187.2 mg/dL and 174.6 mg/dL
DIO mice, 60 mins of PTT, mean of APC group
  blood glucose, PTT in DIO, group mean: 174.9 mg/dL
DIO mice, 60 mins of PTT, single animals, n=7
  blood glucose, PTT in DIO: 129.6 mg/dL and 163.8 mg/dL and 210.6 mg/dL and 156.6 mg/dL and 248.4 mg/dL and 176.4 mg/dL and 138.6 mg/dL
DIO mice, 120 mins of PTT, mean of APC group
  blood glucose, PTT in DIO, group mean: 133.2 mg/dL
DIO mice, 120 mins of PTT, single animals, n=7
  blood glucose, PTT in DIO: 93.6 mg/dl and 126 mg/dl (2×) and 165.6 mg/dl and 178.2 mg/dl and 120.6 mg/dl and 122.4 mg/dl
DIO mice, Mean of APC, two-way RM ANOVA
  blood glucose, PTT in DIO, mean over all time points: 149.3 mg/dL
DIO mice, mean of APC group, n=7
  AUC of PTT, group mean: 631
DIO mice, single animals, n=7
  Total Area of PTT (AUC analysis of PTT): 511.2 and 614.7 and 747 and 609.3 and 757.8 and 641.7 and 535.5
Figure 8f, IGTT in DIO, 0 mins, group mean, VEH 112.9
  blood glucose, IGTT, mean: 93.09 mg/dL
Figure 8f, IGTT in DIO, 0 mins, individual mice
  blood glucose, IGTT: 109.80 mg/dl (2×) and 84.60 mg/dl (2×) and 72.00 mg/dl and 97.20 mg/dl and 93.60 mg/dl
Figure 8f, IGTT in DIO, 15 mins, group mean, VEH 362.1
  blood glucose, IGTT, mean: 364.4 mg/dL
Figure 8f, IGTT in DIO, 15 mins, individual mice
  blood glucose, IGTT: 243.00 mg/dL and 401.40 mg/dL and 361.80 mg/dL and 469.80 mg/dL and 279.00 mg/dL and 376.20 mg/dL and 419.40 mg/dL
Figure 8f, IGTT in DIO, 30 mins, group mean, VEH 448.5
  blood glucose, IGTT, mean: 358.7 mg/dL
Figure 8f, IGTT in DIO, 30 mins, individual mice
  blood glucose, IGTT: 198.00 mg/dL and 376.20 mg/dL and 453.60 mg/dL and 383.40 mg/dL and 358.20 mg/dL and 468.00 mg/dL and 273.60 mg/dL
Figure 8f, IGTT in DIO, 60 mins, group mean, VEH 351.8
  blood glucose, IGTT, mean: 257.9 mg/dL
Figure 8f, IGTT in DIO, 60 mins, individual mice
  blood glucose, IGTT: 171.00 mg/dL and 248.40 mg/dL and 298.80 mg/dL and 241.20 mg/dL and 307.80 mg/dL and 372.60 mg/dL and 165.60 mg/dL
Figure 8f, IGTT in DIO, 100 mins, group mean, VEH 222.7
  blood glucose, IGTT, mean: 157.1 mg/dL
Figure 8f, IGTT in DIO, 100 mins, individual mice
  blood glucose, IGTT: 140.40 mg/dL and 131.40 mg/dL and 176.40 mg/dL and 138.60 mg/dL and 207.00 mg/dL and 190.80 mg/dL and 115.20 mg/dL
Figure 8f, IGTT in DIO, individual mice
  AUC of IGTT, Total Area: 737.1 and 1134 and 1257 and 1200 and 1097 and 1359 and 958.5
Figure 8g, ITT in DIO, 0 mins, individual mice
  blood glucose, ITT: 163.8 mg/dl (2×) and 151.2 mg/dl and 124.2 mg/dl and 156.6 mg/dl (2×) and 160.2 mg/dl
Figure 8g, ITT in DIO, 15 mins, individual mice
  blood glucose, ITT: 91.8 mg/dL and 75.6 mg/dL and 79.2 mg/dL and 93.6 mg/dL and 97.2 mg/dL and 77.4 mg/dL and 108 mg/dL
Figure 8g, ITT in DIO, 30 mins, individual mice
  blood glucose, ITT: 88.2 mg/dl (2×) and 73.8 mg/dl and 93.6 mg/dl and 82.8 mg/dl and 68.4 mg/dl and 86.4 mg/dl
Figure 8g, ITT in DIO, 60 mins, individual mice
  blood glucose, ITT: 75.6 mg/dL and 88.2 mg/dL and 79.2 mg/dL and 93.6 mg/dL and 81 mg/dL and 61.2 mg/dL and 52.2 mg/dL
Figure 8g, ITT in DIO, 100 mins, individual mice
  blood glucose, ITT: 86.4 mg/dl (2×) and 124.2 mg/dl and 75.6 mg/dl and 88.2 mg/dl (2×) and 50.4 mg/dl
Figure 8g, ITT in DIO, individual mice
  AUC analysis of ITT, Total Area: 380.7 and 389.7 and 337.5 and 396.9 and 383.4 and 333 and 351.9
Figure 9g, Time 0.0 mins, single animals
  blood glucose: 320.4 mg/dL and 340.2 mg/dL and 352.8 mg/dL and 234.0 mg/dL and 396.0 mg/dL
Figure 9g, Time 30.0 mins, single animals
  blood glucose: 345.6 mg/dL and 576.0 mg/dL and 259.2 mg/dL and 268.2 mg/dL and 599.4 mg/dL
Figure 9g, Time 60.0 mins, single animals
  blood glucose: 334.8 mg/dL and 468.0 mg/dL and 158.4 mg/dL and 194.4 mg/dL and 502.2 mg/dL
Figure 9g, Time 90.0 mins, single animals
  blood glucose: 268.2 mg/dL and 486.0 mg/dL and 162.0 mg/dL and 203.4 mg/dL and 419.4 mg/dL
Figure 9g, db/db, group mean, n 5
  AUC of OGTT, mean: 1059
Figure 9g, db/db, single animals
  AUC of OGTT: 974.7 and 1457 and 675 and 681.3 and 1509
Figure 9g, mean over all time points and animals, N 20
  OGTT in db/db, column mean of blood glucose: 344.4 mg/dL
0 min, mean of APC group
  ITT, group mean: 153.8
15 min, mean of APC group
  ITT, group mean: 88.97
30 min, mean of APC group
  ITT, group mean: 83.06
60 min, mean of APC group
  ITT, group mean: 75.86
100 min, mean of APC group
  ITT, group mean: 85.63
db/db mice
  AUC of IGTT in db/db, difference between means (APC - VEH) ± SEM: -383.6 ± 97.97
db/db mice, 0 min
  IGTT, Mean Diff. APC - VEH: -33.3
  IGTT, group mean (Mean 1, APC): 142
db/db mice, 15 min
  IGTT, Mean Diff. APC - VEH: -2.925
  IGTT, group mean (Mean 1, APC): 441.9
db/db mice, 30 min
  IGTT, Mean Diff. APC - VEH: -145.1
  IGTT, group mean (Mean 1, APC): 281
